Experimental findings from patent US6706709B2, “Indolinone derivatives as protein kinase/phosphatase inhibitors” (Sugen, Inc., priority 2000, dated 2004) are described below.

In general, IC50 refers to the midpoint of a concentration-inhibition curve.

The structures appear in SMILES notation.

The target of assay [1] is T1, EGF Receptor (Homo sapiens, UniProt P00533).
T1 construct: expressed in transfected cells; host or cells: NIH 3T3/C7 (mouse fibroblasts engineered to express human EGF-R)
The assay can be described thus: bio EGF (EGF Receptor ELISA). The class given is biochemical. As for the experimental part:
EGF Receptor kinase activity in cells genetically engineered to express human EGF-R was measured as described below:
The following materials and reagents were used:
b. 05-101 (UBI) (a monoclonal antibody recognizing an EGFR extracellular domain).
c. Anti-phosphotyrosine antibody (anti-Ptyr) (polyclonal).
d. Detection antibody: Goat anti-rabbit lgG horse radish peroxidase conjugate, TAGO, Inc., Burlingame, Calif.
Keep solution in dark at 4° C. until used.
The following protocol was used:
1. […] Coated plates are good for up to 10 days when stored at 4° C.
2. On day of use, remove coating buffer and replace with blocking buffer (5% Carnation Instant Non-Fat Dry Milk in PBS). Incubate the plate, shaking, at room temperature (about 23° C. to 25° C.) for 30 minutes. Just prior to use, remove blocking buffer and wash plate 4 times with TBST buffer.
2. Choose dishes having 80-90% confluence for the experiment. Trypsinize cells and stop reaction by adding 10% CS DMEM medium. Suspend cells in DMEM medium (10% CS DMEM medium) and centrifuge once at 1000 rpm at room temperature for 5 minutes.
3. Resuspend cells in seeding medium (DMEM, 0.5% bovine serum), and count the cells using trypan blue. Viability above 90% is acceptable. Seed cells in DMEM medium (0.5% bovine serum) at a density of 10,000 cells per well, 100 μL per well, in a 96 well microtiter plate. Incubate seeded cells in 5% CO2 at 37° C. for about 40 hours.
1. Check seeded cells for contamination using an inverted microscope. Dilute drug stock (10 mg/ml in DMSO) 1:10 in DMEM medium, then transfer 5 μL to a test well for a final drug dilution of 1:200 and a final DMSO concentration of 1%. Control wells receive DMSO alone. Incubate in 5% CO2 at 37° C. for one hour.
2. Prepare EGF ligand: dilute stock EGF in DMEM so that upon transfer of 10 μL dilute EGF (1:12 dilution), 25 nM final concentration is attained.
3. Prepare fresh 10 ml HNTG* sufficient for 100 μL per well wherein HNTG* comprises: HNTG stock (2.0 mL), milli-Q H2O (7.3 mL), EDTA, 100 mM, pH 7.0 (0.5 mL), Na3VO4 0.5 M (0.1 mL) and Na4(P2O7), 0.2 M (0.1 mL).
5. After two hours incubation with drug, add prepared EGF ligand to cells, 10 μL per well, to yield a final concentration of 25 nM. Control wells receive DMEM alone. Incubate, shaking, at room temperature, for 5 minutes.
6. Remove drug, EGF, and DMEM. Wash cells twice with PBS. Transfer HNTG* to cells, 100 μL per well. Place on ice for 5 minutes. Meanwhile, remove blocking buffer from other ELISA plate and wash with TBST as described above.
7. With a pipette tip securely fitted to a micropipettor, scrape cells from plate and homogenize cell material by repeatedly aspirating and dispensing the HNTG* lysis buffer. Transfer lysate to a coated, blocked, and washed ELISA plate. Incubate shaking at room temperature for one hour.
8. Remove lysate and wash 4 times with TBST. Transfer freshly diluted anti-Ptyr antibody to ELISA plate at 100 μL per well. Incubate shaking at room temperature for 30 minutes in the presence of the anti-Ptyr antiserum (1:3000 dilution in TBST).
9. Remove the anti-Ptyr antibody and wash 4 times with TBST. Transfer the freshly diluted TAGO 30 anti-rabbit IgG antibody to the ELISA plate at 100 μL per well. Incubate shaking at room temperature for 30 minutes (anti-rabbit IgG antibody: 1:3000 dilution in TBST).
10. Remove detection antibody and wash 4 times with TBST. Transfer freshly prepared ABTS/H2O2 solution to ELISA plate, 100 μL per well. Incubate at room temperature for 20 minutes. ABTS/H2O2 solution: 1.2 μL 30% H2O2in 10 mL ABTS stock.
11. Stop reaction by adding 50 μL 5N H2SO4 (optional), and determine O.D. at 410 nm.
12. The maximal phosphotyrosine signal is determined by subtracting the value of the negative controls from the positive controls. The percent inhibition of phosphotyrosine content for extract-containing wells is then calculated, after subtraction of the negative controls.
In general terms: In an ELISA, binding on a coated surface is turned into a signal by an enzyme label.

For assay [2], the target named is GST-Flk1 (UniProt P35918). Description: GST-FLK-1 bioassay (bio flkGST). Type of assay: biochemical. As for the experimental part: This assay analyzes the tyrosine kinase activity of GST-Flk1 on poly glu tyr peptides.
2. poly glu tyr 4:1, lyophilizate (Sigma Catalog # P0275). Prepare 1 mg/mL poly glu tyr in sterile PBS and store in 1 ml aliquots at −20° C.
3. Preparation of poly glu tyr (pEY) coated assay plates: Coat 2 μg/well of poly glu tyr (pEY) in 100 μL PBS at room temperature for 2 hours or at +4° C. overnight. Cover plates well to prevent evaporation.
4. PBS Buffer: To make 1 liter of a 1× working solution, mix […], 1.15 g NA2HPO4, 0.2 g KCl and 8 g NaCl in approx. 900 mL dH2O. When all reagents have dissolved, adjust the pH to 7.2 with HCl. Bring total volume to 1L with dH2O.
5. PBS-Tw Buffer: To 1L of PBS Buffer, add […] Tween-20. Stir until dissolved.
6. TBB-Blocking Buffer: To make one liter of a 1× working solution, mix 1.21 g TRIS, 8.77 g NaCl, 1 mL TWEEN-20 in approximately 900 mL dH2O. Adjust pH to 7.2 with HCl. Add 10 g BSA, stir to dissolve. Bring total volume to 1 L with dH2O. Filter to remove particulate matter.
7. 1% BSA in PBS: To make a 1× working solution, add 10 g BSA to approx. 990 mL PBS buffer, stir to dissolve. Adjust total volume to 1 L with PBS buffer, filter to remove particulate matter.
9. GST-Flk1cd purified from sf9 recombinant baculovirus transformation.
13. Kinase Dilution Buffer (KDB): Mix 10 mL Hepes (pH 7.5), 1 mL of 5 M NaCl, 40 μL of 100 mM NaVO4 and 0.4 mL of 5% BSA in dH2O with 88.56 mL of dH2O.
14. NUNC-96-well V bottom polypropylene plates Applied Scientific Catalog # AS-72092
15. EDTA: Mix 14.12 g ethylenediaminetetraacetic acid (EDTA) to approx. 70 mL dH2O. Add 10N NaOH until EDTA dissolves. Adjust pH to 8.0. Adjust total volume to 100 mL with dH2O.
16. 1° Antibody Dilution Buffer: Mix 10 mL of 5% BSA in PBS buffer with 89.5 mL TBSTw.
17. Anti-phosphotyrosine monoclonal conjugated to horseradish peroxidase (PY99 HRP, Santa Cruz Biotech).
18. 2,2′-Azino-bis(3-ethylbenzthiazoline-6-sulfonic acid (ABTS, Moss, Cat. No. ABST).
1. Coat Corning 96 well ELISA plates with 2 μg of polyEY peptide in sterile PBS as described in step 3 of Materials and Reagents.
2. Remove unbound liquid from wells by inverting plate. Wash once with TBSTw. Pat the plate on a paper towel to remove excess liquid.
3. Add 100 μL of 1% BSA in PBS to each well. Incubate, with shaking, for 1 hr. at room temperature.
5. Soak wells with 50 mM Hepes pH7.5 (150 μL/well).
6. Dilute test compound with dH2O/4% DMSO to 4 times the desired final assay concentration in 96-well polypropylene plates.
7. Add 25 μL diluted test compound to ELISA plate.
8. Add 25 μL of 40 mM MnCl2 with 4×ATP (2 μM) to all wells.
9. Add 25 μL 0.5 M EDTA to negative control wells.
10. Dilute GST-Flk1 0.005 μg (5 ng)/well in KDB. For 50 ml KDB add 100 μL of 0.050 mg/mL GST-Flk1 enzyme.
11. Add 50 μL of diluted enzyme to each well.
12. Incubate, with shaking, for 15 minutes at room temperature.
13. Stop reaction by adding 50 μL of 250 mM EDTA (pH 8.0).
14. Wash 3× with TBSTw and pat plate on paper towel to remove excess liquid.
15. Add 100 μL per well anti-phosphotyrosine HRP conjugate, 1:5,000 dilution in antibody dilution buffer. Incubate, with shaking for 90 min. at room temperature.
16. Wash as described above in step 14.
17. Add 100 μL of room temperature ABTS solution to each well.
18. Incubate, with shaking, for 10 to 15 minutes. Remove any bubbles.
19. Stop reaction by adding 20 μL of 10% SDS.
20. Read assay on Dynatech MR7000 ELISA reader: test filter at 410 nM; reference filter at 630 nM.

T1 sequence (P00533 25-1210): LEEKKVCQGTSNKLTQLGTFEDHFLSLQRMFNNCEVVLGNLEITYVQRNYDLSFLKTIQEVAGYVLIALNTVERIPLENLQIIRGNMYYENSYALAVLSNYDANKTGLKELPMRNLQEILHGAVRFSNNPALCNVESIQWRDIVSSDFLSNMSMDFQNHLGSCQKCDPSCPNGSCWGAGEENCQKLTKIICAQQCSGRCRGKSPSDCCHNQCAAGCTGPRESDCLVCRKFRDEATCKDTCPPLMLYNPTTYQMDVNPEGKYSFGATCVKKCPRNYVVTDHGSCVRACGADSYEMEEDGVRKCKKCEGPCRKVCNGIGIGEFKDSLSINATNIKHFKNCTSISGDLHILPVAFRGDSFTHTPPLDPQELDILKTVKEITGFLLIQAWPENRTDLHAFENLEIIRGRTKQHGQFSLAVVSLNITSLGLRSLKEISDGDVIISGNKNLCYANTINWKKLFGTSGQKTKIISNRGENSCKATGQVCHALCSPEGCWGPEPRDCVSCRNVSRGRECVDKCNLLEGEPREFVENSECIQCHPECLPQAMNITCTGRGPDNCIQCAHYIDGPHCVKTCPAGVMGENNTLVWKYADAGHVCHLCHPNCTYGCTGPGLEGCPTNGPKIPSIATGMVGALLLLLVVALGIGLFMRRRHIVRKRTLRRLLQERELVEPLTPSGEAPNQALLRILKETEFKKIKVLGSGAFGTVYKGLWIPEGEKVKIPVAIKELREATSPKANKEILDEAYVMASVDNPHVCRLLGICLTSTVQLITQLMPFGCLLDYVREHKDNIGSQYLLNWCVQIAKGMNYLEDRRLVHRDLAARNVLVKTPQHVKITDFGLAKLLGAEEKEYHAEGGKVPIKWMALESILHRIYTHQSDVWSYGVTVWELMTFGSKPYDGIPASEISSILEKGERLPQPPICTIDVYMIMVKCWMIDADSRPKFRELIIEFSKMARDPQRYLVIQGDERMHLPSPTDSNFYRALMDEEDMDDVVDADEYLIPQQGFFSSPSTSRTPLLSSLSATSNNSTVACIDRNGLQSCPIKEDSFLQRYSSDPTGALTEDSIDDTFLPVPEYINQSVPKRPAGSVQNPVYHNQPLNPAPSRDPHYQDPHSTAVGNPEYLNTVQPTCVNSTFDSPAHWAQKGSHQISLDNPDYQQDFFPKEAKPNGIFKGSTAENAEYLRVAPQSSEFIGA

For `O=C1Nc2ccc(S(=O)(=O)Nc3ccccc3)cc2C1=Cc1cc2cc(OCCN3CCCC3)ccc2[nH]1` [IN-044, 2-oxo-3-[5-(2-pyrrolidin-1-yl-ethoxy)-1H-indol-2-ylmethylene]-2,3-dihydro-1H-indole-5-sulfonic acid phenylamide], the 50% inhibitory concentration (IC50) in assay [1] worked out at 1690 nM; in assay [2] it was 180 nM.
The corresponding values for `O=C1Nc2cc(-c3ccccc3)ccc2C1=Cc1cc2cc(OCCN3CCCC3)ccc2[nH]1` [IN-015, 6-phenyl-3-[5-(2-pyrrolidin-1-yl-ethoxy)-1H-indol-2-ylmethylene]-1,3-dihydro-indol-2-one] are 70600 nM and 990 nM.
Take `O=C1Nc2ccc(S(=O)(=O)N3CCCc4ccccc43)cc2C1=Cc1cc2cc(OCCN3CCCC3)ccc2[nH]1` [IN-050, 5-(3,4-dihydro-2H-quinoline-1-sulfonyl)-3-[5-(2-pyrrolidin-1-yl-ethoxy)-1H-indol-2-ylmethylene]-1,3-dihydro-indol-2-one]: the concentration for half-maximal inhibition (IC50) in assay [1] was found to be 2400 nM; in assay [2], 710 nM.
In the case of `CCN(CC)CCCc1ccc2[nH]c(C=C3C(=O)Nc4ccc(-c5ccccc5)cc43)cc2c1` [IN-004, 3-[5-(3-diethylamino-propyl)-1H-indol-2-ylmethylene]-5-phenyl-1,3-dihydro-indol-2-one], the 50% inhibitory concentration (IC50) in assay [1] amounted to 2570 nM; in assay [2], 470 nM.
The corresponding values for `O=C1Nc2ccc(S(=O)(=O)N3CCc4ccccc43)cc2C1=Cc1cc2cc(OCCN3CCCC3)ccc2[nH]1` [IN-046, 5-(2,3-dihydro-indole-1-sulfonyl)-3-[5-(2-pyrrolidin-1-yl-ethoxy)-1H-indol-2-ylmethylene]-1,3-dihydro-indol-2-one] are 1230 nM and 1050 nM.
The corresponding values for `O=C1Nc2cccc(CCO)c2C1=Cc1cc2cc(OCCN3CCOCC3)ccc2[nH]1` [IN-033, 4-(2-hydroxy-ethyl)-3-[5-(2-morpholin-4-yl-ethoxy)-1H-indol-2-ylmethylene]-1,3-dihydro-indol-2-one] are 8200 nM and less than 9 nM.
Consider `O=C1Nc2ccc(S(=O)(=O)Nc3cccnc3)cc2C1=Cc1cc2cc(OCCN3CCCC3)ccc2[nH]1` [IN-045, 2-oxo-3-[5-(2-pyrrolidin-1-yl-ethoxy)-1H-indol-2-ylmethylene]-2,3-dihydro-1H-indole-5-sulfonic acid pyridin-3-ylamide], for which the values for the half-maximal inhibitory concentration (IC50) in assay [1] and in assay [2] were 8020 nM and 120 nM, respectively.
Take `O=C1Nc2cc(-c3cccnc3)ccc2C1=Cc1cc2cc(OCCN3CCOCC3)ccc2[nH]1` [IN-034, 3-[5-(2-morpholin-4-yl-ethoxy)-1H-indol-2-ylmethylene]-6-pyridin-3-yl-1,3-dihydro-indol-2-one]: the 50% inhibitory concentration (IC50) in assay [1] is greater than 20000 nM; in assay [2], 14000 nM.
As to `CC(C)NS(=O)(=O)c1ccc2c(c1)C(=Cc1cc3cc(OCCN4CCCC4)ccc3[nH]1)C(=O)N2` [IN-043, 2-oxo-3-[5-(2-pyrrolidin-1-yl-ethoxy)-1H-indol-2-ylmethylene]-2,3-dihydro-1H-indole-5-sulfonic acid isopropylamide], the IC50 in assay [1] stood at 4350 nM; in assay [2], 270 nM.
With `NS(=O)(=O)c1ccc2c(c1)C(=Cc1cc3cc(OCCN4CCOCC4)ccc3[nH]1)C(=O)N2` [IN-040, 3-[5-(2-morpholin-4-yl-ethoxy)-1H-indol-2-ylmethylene]-2-oxo-2,3-dihydro-1H-indole-5-sulfonic acid amide], the 50% inhibitory concentration (IC50) in assay [1] is greater than 100000 nM; in assay [2] it was 210 nM.
The corresponding values for `COc1ccc(-c2ccc3c(c2)NC(=O)C3=Cc2cc3cc(OCCN4CCOCC4)ccc3[nH]2)cc1` [IN-035, 6-(4-methoxy-phenyl)-3-[5-(2-morpholin-4-yl-ethoxy)-1H-indol-2-ylmethylene]-1,3-dihydro-indol-2-one] are greater than 20000 nM and greater than 20000 nM.
In the case of `CN(c1cccc(Cl)c1)S(=O)(=O)c1ccc2c(c1)C(=Cc1cc3cc(OCCN4CCOCC4)ccc3[nH]1)C(=O)N2` [IN-060, 3-[5-(2-morpholin-4-yl-ethoxy)-1H-indol-2-ylmethylene]-2-oxo-2,3-dihydro-1H-indole-5-sulfonic acid (3-chloro-phenyl)-methyl-amide], the IC50 in assay [1] was greater than 20000 nM; in assay [2], 8550 nM.
